“Also recorded” adds a separate entry of the source. No end group written: not given here.
Columns and labels:
T84 cells [1] = assay: DNA synthesis ([methyl-3H]thymidine incorporation), tumor cell proliferation; type: cell-based, human; conditions: for Effect of agent on inhibition of proliferation induced by ST: with ST, 1 μM KT5823, 50 μM RP8pCPT-cGMP, 0.5 μM KT5720, 50 μM RP-cAMPs, 10 μM milrinone, 200 μM L-DLT, 20 μM BAPTA, 50 μM DTR, 1 μM PHE, 100 nM CTX
Experimental: T84 (passages 50-70) and SW480 (passage 100-120) human colon carcinoma cells, obtained from the American Type Culture Collection, were maintained at 37° C. (5% CO2) in DMEM/F12 containing 2.5 mM L-glutamine, 100 units/ml penicillin, 100 μg/ml streptomycin, and 10% (vol/vol) FBS.
Exponentially growing cancer cells (˜60% confluent in 96-well plates) were synchronized by serum starvation in Eagle's minimal essential medium (EMEM) for 48 h, followed by proliferative induction with 10 mM L-glutamine (in EMEM) for 24 h. ST and other agents were added to cells 15 min before 0.2 μCi per well (1 Ci=37 GBq) of [methyl-3H]thymidine, which was added for 3 h, followed by quantification of [3H]thymidine incorporation into DNA (15).

PKG-I and -II = conditions: cited from earlier work
[2] = target: cAMP-dependent protein kinase I and II; conditions: refs. 50 and 51; cited from earlier work
T84 cells [3] = assay: 45Ca2+ transport (calcium influx); type: cell-based, human; conditions: ST 1 μM, 20 min; 8-br-cGMP 5 mM, 40 min
Experimental: Exponentially growing T84 cells (40-80% confluent in 24-well plates) were incubated in media (S-MEM, Life Technologies, Rockville, Md.) containing low (300 μM) CaCl2 to maximize the signal-to-noise ratio for L-cis-diltiazem (L-DLT)-sensitive 45Ca2+ transport determinations. Cells were treated with ST, 8-br-cGMP, and/or L-DLT for the indicated times, followed by the addition of 1 μCi per well 45Ca2+ for the last 15 min. Incubations were terminated by washing four times in cold PBS buffer (145 mM NaCl/5 mM KCl/1 mM MgCl2/10 mM glucose/5 mM Hepes, pH 7.4) containing 0.1 mM EGTA, cells were solubilized with cold NaOH (0.1 M), and radioactivity was quantified in 100-μl aliquots.

[4] = tested on: human T84 colon cancer cells; assay: Perforated whole-cell patch-clamp current measurements; type: cell-based; conditions: Ca-free solution, n=5
[5] = tested on: human T84 colon cancer cells; assay: as above; type: cell-based; conditions: for Induction of L-DLT-sensitive membrane current: 500 nM ST, 2.5 mM 8-br-cGMP
Experimental: The perforated mode of the whole-cell patch-clamp recording was applied to human T84 colon cancer cells. Membrane potential was controlled through the electrical access obtained by membrane perforation induced by amphotericin B (9, 10). The pipette solution supplemented by amphotericin B ([…]) contained: 140 mM KCl, 1 mM MgCl2, 5 mM EGTA, and 20 mM Hepes-KOH (pH 7.3). The bath solution contained (in mM): 136.5 mM NaCl, 5.4 mM KCl, 1.8 mM CaCl2, 0.5 mM MgCl2, 5.5 mM glucose, and 5 mM Hepes-NaOH (pH 7.4). Voltage-clamp recordings were performed with an Axopatch 1-C patch-clamp amplifier (Axon Instruments, Foster City, Calif.) at 31±1° C. using an HCC-100 temperature controller (Dagan Instruments, Minneapolis; ref. 19).

[6] = tested on: Caco 2 human colon carcinoma cells; assay: Inhibition of proliferation of cancer cells; type: cell-based; conditions: after exposure
[7] = tested on: T84 human colon carcinoma cells; assay: Inhibition of proliferation of cancer cells; type: cell-based; conditions: after exposure
[8] = tested on: human colorectal cancer cells; assay: Actin cytoskeleton organization (confocal microscopy, cell spreading); type: cell-based; conditions: ST 1 micromolar, confocal microscopy
Source text: ST prevented human colorectal cancer cells from organizing their actin cytoskeleton. […] The latter is a functional readout of the ability of cells to organize actin. Human colorectal cancer cells treated with ST cannot spread their bodies out in vitro. An inability to organize their actin cytoskeletons will prevent these cells from being able to migrate through tissues to metastasize.

[9] = tested on: matrix metalloproteinase 9 release from human colorectal cancer cells; assay: Release of matrix metalloproteinase 9 (MMP 9 activity, western blot); type: cell-based; conditions: ST 1 micromolar
Source text: Preventing the secretion of this digestive enzyme will inhibit the ability of these tumor cells to invade the wall of the intestine. […] ST did this at a concentration of 1 micromolar.

Question: Which “Effect of agent on inhibition of proliferation induced by ST” value (from here on “Effect of agent on inhibition … by ST”) (T84 cells [1]) does the source give for COC(=O)[C@@]1(OC)C[C@H]2O[C@]1(C)n1c3ccccc3c3c4c(c5c6ccccc6n2c5c31)C(=O)N(C)C4 [KT5823] here?
Answer: did not alter

Question: And the Ki (PKG-I and -II)?
Answer: 234 nM

Question: For O=C1CN(/N=C/c2ccc(-c3ccc([N+](=O)[O-])cc3)o2)C(O)=N1 [Dantrolene], which “Effect of agent on inhibition … by ST” value (T84 cells [1]) is on record?
Answer: did not reverse

Question: And the “Effect of agent on inhibition … by ST” value (T84 cells [1]; listed as dantrolene)?
Answer: did not affect

Question: For CC(=O)OCOC(=O)CN(CC(=O)OCOC(C)=O)c1ccccc1OCCOc1ccccc1N(CC(=O)OCOC(C)=O)CC(=O)OCOC(C)=O [BAPTA-AM], which “Effect of agent on inhibition … by ST” value (T84 cells [1]) is on record?
Answer: reversal; also recorded: abolished

Question: With Nc1ncnc2c1ncn2[C@@H]1O[C@@H]2CO[P@@](O)(=S)O[C@H]2[C@H]1O [RP-cAMPs] as the compound, how does the “Effect of agent on inhibition … by ST” value (T84 cells [1]) read?
Answer: did not alter

Question: What about the Ki [2] of the same compound?
Answer: 10000 nM

Question: Which “Effect of agent on inhibition … by ST” value (T84 cells [1]) does the source give for CCCCCCOC(=O)[C@]1(O)C[C@@H]2O[C@@]1(C)n1c3ccccc3c3c4c(c5c6ccccc6n2c5c31)C(=O)NC4 [KT5720] here?
Answer: did not alter

Question: And the Ki [2]?
Answer: 56 nM

Question: For C[C@H](CCC(=O)O)C[C@H](C)C[C@H](C)C(=O)/C=C(\O)[C@H](C)C[C@H](C)C/C=C/[C@@H](C)[C@@H](O)[C@@H](C)[C@@H](O)C[C@@H]1CC[C@@](C)([C@H]2CC[C@@](C)([C@@H](C)O)O2)O1 [Ionomycin], which “Effect on cell proliferation of agent on its own compared with ST” value (T84 cells [1]; ionomycin 1 μM, ST 1 μM) is on record?
Answer: mimicked

Question: Which “Inhibition of cell proliferation / DNA synthesis by 8-br-cGMP” value (T84 cells [1]; 8-br-cGMP 5 mM) does the source give for Nc1nc2c(nc(Br)n2[C@@H]2O[C@@H]3COP(=O)(O)O[C@H]3[C@H]2O)c(=O)[nH]1 [8-br-cGMP] here?
Answer: inhibited tumor cell DNA synthesis; also recorded: inhibition of cell proliferation

Question: And the “Influx of 45Ca2+ into colon cancer cells” value (T84 cells [3])?
Answer: induced influx

Question: What about the “Induced current after removal of [Ca2+]ext” value [4] of the same compound?
Answer: 0.07±0.04 nA

Question: What about the “Induction of Ca2+-dependent K+ current (KCa), charybdotoxin-sensitive” value [5] of the same compound?
Answer: induced

Question: What about the “Reversal potential derived from the induced current-voltage relationship” value [5] of the same compound?
Answer: ~−70 mV

Question: What about the “Induction of L-DLT-sensitive membrane current” value [5] of the same compound?
Answer: induced an L-DLT-sensitive current

Question: And the “Induction of L-DLT-sensitive membrane current” value ([5]; listed as 8-Br-cGMP)?
Answer: induces an L-DLT-sensitive current

Question: What about the “Induced current in the presence of [Ca2+]ext” value ([5]; control, 1.8 mM CaCl2, n=5) of the same compound?
Answer: 0.21±0.04 nA

Question: What about the “Shift of the reversal potential ΔEm” value ([5]; ramp pulses, holding potential −40 mV, mean±SEM) of the same compound?
Answer: −25.8±4.6 mV

Question: Which results are given for “uroguanylin: homologous ST receptor binding peptide produced locally in the intestine (NDDCELCVNVACTGCL; ends and bridges not checked; cysteine pairing not given here; UniProt Q16661 97-112, looked up)”?
Answer: Inhibition of proliferation of cancer cells [6]: inhibit the proliferation; Inhibition of proliferation of cancer cells [7]: inhibit the proliferation

Question: Which “Effect of agent on inhibition … by ST” value (T84 cells [1]) does the source give for Nc1nc2c(nc(Sc3ccc(Cl)cc3)n2C2OC3COP(O)(=S)OC3C2O)c(=O)[nH]1 (centres unmarked) [RP8pCPT-cGMP] here?
Answer: did not alter

Question: And the Ki (PKG-I and -II)?
Answer: 500 nM

Question: With Cc1[nH]c(=O)c(C#N)cc1-c1ccncc1 [milrinone] as the compound, how does the “Effect of agent on inhibition … by ST” value (T84 cells [1]) read?
Answer: did not alter

Question: For Nc1nc2c(ncn2[C@@H]2O[C@@H]3COP(=O)(O)O[C@H]3[C@H]2O)c(=O)[nH]1 [cyclic GMP], which “Organization of actin cytoskeleton” value [8] is on record?
Answer: prevented this organization

Question: What about the “Release of matrix metalloproteinase 9” value [9] of the same compound?
Answer: precisely mimicked

Question: With NC(=Nc1ccccc1)NC(=O)c1nc(Cl)c(N)nc1N [phenamil] as the compound, how does the “Effect of agent on inhibition … by ST” value (T84 cells [1]) read?
Answer: did not affect; also recorded: did not reverse

Question: Which “Effect of agent on inhibition … by ST” value (T84 cells [1]) does the source give for “charybdotoxin (QFTNVSCTTSKECWSVCQRLHNTSRGKCMNKKCRCYS)” here?
Answer: absence of charybdotoxin effect

Question: What about the “Effect of agent on inhibition … by ST” value (T84 cells [1]; listed as CTX) of the same compound?
Answer: did not reverse
